This assay concerns the target T1, complement component 5a receptor 1 (C5aR1) (Homo sapiens, UniProt P21730).
T1 construct: recombinant human C5aR1 with a C-terminal c-Myc tag
T1 sequence (P21730 1-350): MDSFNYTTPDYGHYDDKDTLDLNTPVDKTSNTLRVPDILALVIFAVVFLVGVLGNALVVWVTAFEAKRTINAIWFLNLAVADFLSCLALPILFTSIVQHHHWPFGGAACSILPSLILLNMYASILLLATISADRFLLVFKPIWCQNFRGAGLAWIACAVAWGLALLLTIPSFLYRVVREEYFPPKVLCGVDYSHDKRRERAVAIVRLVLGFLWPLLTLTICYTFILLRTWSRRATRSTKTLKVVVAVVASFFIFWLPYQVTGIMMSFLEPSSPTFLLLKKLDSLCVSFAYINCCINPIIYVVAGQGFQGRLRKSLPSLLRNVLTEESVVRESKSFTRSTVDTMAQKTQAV
Put plainly: SPR (BIAcore X100) on immobilized receptor, dose-dependent. The class given is binding. A general note: SPR reads the build-up and loss of mass on a sensor chip optically.

Molecules are shown by their SMILES.

The values below come from paper PMC9130998, “Paclitaxel binds and activates C5aR1: A new potential therapeutic target for the prevention of chemotherapy-induced peripheral neuropathy and hypersensitivity reactions” (Cell Death & Disease, 2022).

For the compound `CC(=O)O[C@@]12CO[C@@H]1C[C@H](O)[C@@]1(C)C(=O)[C@H](O)C3=C(C)[C@@H](OC(=O)[C@H](O)[C@@H](NC(=O)OC(C)(C)C)c4ccccc4)C[C@@](O)([C@@H](OC(=O)c4ccccc4)[C@H]21)C3(C)C` [docetaxel], the “SPR (BIAcore X100) on immobilized receptor, dose-dependent” value was “similarly to paclitaxel, also docetaxel can bind C5aR1 receptor in a dose dependent way (Fig. S2A–D)”.
